In US5316919A, “Method of producing 2 KD to 10 KD peptides having no L-methionine residue” (priority 1992, dated 1994):
Where no end group is shown, it is not given here.

System: male ICR mice
Experiment: Effects on the blood pressure (caudal vein blood pressure, noninvasive sphygmomanometer) after intravenous injection
Assay type: in vivo
Details: 40 μg/kg by injection into the caudal vein, male ICR mice of 5 weeks of age
Experimental: Two of the compounds of the invention were each administered to male ICR mice of 5 weeks of age by injection into the caudal vein at a dose of 40 μg/kg. […]
In addition, the activity was of long duration. The peptides of the invention have therapeutic utility.

Row | Substance | caudal vein blood pressure relative to physiological saline taken as 100% (5 min after administration) [%] | caudal vein blood pressure relative to physiological saline taken as 100% (10 min after administration) [%] | caudal vein blood pressure relative to physiological saline taken as 100% (15 min after administration) [%] | caudal vein blood pressure relative to physiological saline taken as 100% (20 min after administration) [%]
1 | H-HSDAVFTDNYTRLRKQLAVKKYLNSILNGPEA-OH [Peptide of Reference Example 1, H-His-Ser-Asp-Ala-Val-Phe-Thr-Asp-Asn-Tyr-Thr-Arg-Leu-Arg-Lys-Gln-Leu-Ala- Val-Lys-Lys-Tyr-Leu-Asn-Ser-Ile-Leu-Asn-Gly-Pro-Glu-Ala-OH] | 71.1 | 66.4 | 74.9 | 77.9
2 | H-HSDAVFTDNYTRLRKQLAVKKYLNSILNGP-OH [Peptide of Reference Example 3, H-His-Ser-Asp-Ala-Val-Phe-Thr-Asp-Asn-Tyr-Thr-Arg-Leu-Arg-Lys-Gln-Leu-Ala- Val-Lys-Lys-Tyr-Leu-Asn-Ser-Ile-Leu-Asn-Gly-Pro-OH] | 58.9 | 74.1 | 94.3 | 105.5
3 | vasoactive intestinal polypeptide (HSDAVFTDNYTRLRKQMAVKKYLNSILN; ends and bridges not checked; UniProt P01282 125-152, looked up) [Naturally occurring VIP, reference compound] | 83.3 | 97.2 | 95.9 | 102.8
